According to paper PMC12261228 (ACS Pharmacology & Translational Science, 2025):
Where two headings read alike, the source gives them in different places.

How the values were obtained:
[1] = test system: microtubules in U2OS cells; assay: Immunofluorescence of microtubule organization; assay type: cell-based, human; settings: 10 μM, 15 h
Experimental: DMSO at appropriate dilution served as control.
Immunofluorescence microscopy on formaldehyde-fixed, Triton X-100 extracted cells (F/Tx) was performed as previously described. Extraction and fixation steps were carried out in a microtubule stabilizing buffer consisting of 0.1 M KMes, 2 mM EGTA, 2 mM MgCl2, 4% polyethylene glycol 6000, pH 6.9. Cells were fixed for 30 min in 3% formaldehyde before extraction for 4 min with 0.5% Triton X-100 at 37 °C. Mouse monoclonal antibody TU-01 (IgG1) directed to α-tubulin , in the form of hybridoma spent culture medium was diluted 1:10. The DyLight 549-conjugated antimouse antibody (Jackson Immunoresearch Laboratories, West Grove, PA, USA) was diluted 1:500. Samples were mounted in MOWIOL 4–88 (Calbiochem, San Diego, CA, USA) supplemented with 4,6-diamidino-2-phenylindole (DAPI; Sigma-Aldrich, St. Louis, MO, USA) and examined with an Olympus AX-70 Provis microscope (Olympus, Hamburg, Germany) equipped with a 60×/1.0 water objective.

HCT116 = assay: MTS cytotoxicity assay, 72 h; assay type: cell-based; settings: Homo sapiens, HCT-116, 72 h, read-out: IC50 HCT116
CCRF-CEM = assay: MTS cytotoxicity assay, 72 h; assay type: cell-based; settings: Homo sapiens, CCRF-CEM, 72 h, read-out: IC50 CCRF-CEM, MTS assay, 3-day incubation, mean ± SD of 3 experiments
U2OS = assay: MTS cytotoxicity assay, 72 h; assay type: cell-based, human
HCT116p53–/– = assay: MTS cytotoxicity assay, 72 h; assay type: cell-based; settings: read-out: IC50 HCT116p53–/–
MRC-5 = assay: MTS cytotoxicity assay, 72 h; assay type: cell-based; settings: Homo sapiens, MRC5, 72 h, read-out: IC50 MRC-5
K562 = assay: MTS cytotoxicity assay, 72 h; assay type: cell-based; settings: Homo sapiens, K562, 72 h, read-out: IC50 K562
BJ = assay: MTS cytotoxicity assay, 72 h; assay type: cell-based; settings: Homo sapiens, read-out: IC50 BJ
K562-TAX = assay: MTS cytotoxicity assay, 72 h; assay type: cell-based; settings: read-out: IC50 K562-TAX
CEM-DNR = assay: MTS cytotoxicity assay, 72 h; assay type: cell-based; settings: Homo sapiens, read-out: IC50 CEM-DNR
CCRF-CEM lymphoblasts = assay: FACS analysis of cell cycle, apoptosis, mitosis and polyploidy; settings: for Mitosis: phospho-Histone (Ser10); for Apoptosis: sub-G0/G1 DNA content, % of positive cells
HUVEC = assay: MTS cytotoxicity assay, 72 h; assay type: cell-based; settings: Homo sapiens, 3-day incubation, mean ± SD
panel of cell lines [2] = test system: panel of cell lines
panel of cell lines [3] = assay: cells; settings: read-out: IC50 values, cancer cell lines
[4] = Homo sapiens, U2OS, 72 h, read-out: IC50 U2OS, MTS assay, 3-day incubation, mean ± SD

Row | SMILES | IC50 (HCT116) [µM] | IC50 (CCRF-CEM) [µM] | IC50 (U2OS; [4]) [µM] | IC50 (HCT116p53–/–) [µM] | IC50 (MRC-5) [µM] | IC50 (K562) [µM] | IC50 (BJ) [µM] | IC50 (K562-TAX) [µM] | IC50 (CEM-DNR) [µM] | G0/G1 (CCRF-CEM lymphoblasts; 1×IC50, 24 h) [%] | G2/M (CCRF-CEM lymphoblasts; 1×IC50, 24 h) [%] | Polyploid cells (CCRF-CEM lymphoblasts; 1×IC50, 24 h) [%] | S (CCRF-CEM lymphoblasts; 1×IC50, 24 h) [%] | Mitosis (CCRF-CEM lymphoblasts; 1×IC50, 24 h) [%] | Apoptosis (CCRF-CEM lymphoblasts; 1×IC50, 24 h) [%] | G0/G1 (CCRF-CEM lymphoblasts; 5×IC50, 24 h) [%] | G2/M (CCRF-CEM lymphoblasts; 5×IC50, 24 h) [%] | Polyploid cells (CCRF-CEM lymphoblasts; 5×IC50, 24 h) [%] | S (CCRF-CEM lymphoblasts; 5×IC50, 24 h) [%] | Mitosis (CCRF-CEM lymphoblasts; 5×IC50, 24 h) [%] | other results
1 | COc1cc2c(c(OC)c1OC)-c1ccc(OC)c(=O)cc1[C@@H](n1cc(CCCC3=C4C(C)=CC(C)=[N+]4[B-](F)(F)n4c(C)cc(C)c43)[n+](C)n1)CC2 [CB7] | 1.51 ± 0.33 | 0.84 ± 0.058 | < 2 | 1.43 ± 0.162 | > 50 | 0.77 ± 0.0224 | > 50 | 0.62 ± 0.084 | 1.34 ± 0.229 | 26.66 | 45.89 | 21.60 | 27.45 | 19.77 | 13.02 | 6.62 | 88.84 | 23.77 | 4.54 | 68.32 | effect on microtubules (in words) [1]: microtubule remnants were detectable; IC50 (U2OS; read-out: IC50 U2OS, MTS assay, 3-day incubation, mean ± SD): 1.96 ± 0.096 µM; Apoptosis (CCRF-CEM lymphoblasts; 5×IC50, 24 h): 14.67%; IC50 (HUVEC): 1.4 ± 0.104 µM; RI (resistance index) (panel of cell lines [2]): 1.22; SI (selectivity index) (panel of cell lines [2]): >38.40
2 | COc1cc2c(c(OC)c1OC)-c1ccc(N(C)CCCCC3=C4C(C)=CC(C)=[N+]4[B-](F)(F)n4c(C)cc(C)c43)c(=O)cc1[C@@H](NC(C)=O)CC2 [CB11] | 4.93 ± 0.729 | 2.5 ± 0.567 | 4.62 ± 1.23 | 5.52 ± 0.762 | > 50 | 1.85 ± 0.204 | > 50 | 5.18 ± 0.198 | 5.49 ± 0.935 | 35.98 | 30.38 | 13.64 | 33.64 | 4.83 | 5.26 | 10.48 | 79.29 | 24.88 | 10.23 | 59.86 | IC50 (panel of cell lines [3]): 2.5 to 9 µM; Apoptosis (CCRF-CEM lymphoblasts; 5×IC50, 24 h): 16.42%; IC50 (HUVEC): 5.52 ± 0.29 µM; RI (resistance index) (panel of cell lines [2]): 2.45; SI (selectivity index) (panel of cell lines [2]): >12.87
3 | COc1cc2c(c(OC)c1OC)-c1ccc(N(C)C(=O)CCC3=C4C(C)=CC(C)=[N+]4[B-](F)(F)n4c(C)cc(C)c43)c(=O)cc1[C@@H](NC(C)=O)CC2 [CB12] | 8.09 ± 0.268 | 5.54 ± 0.475 | 9.12 ± 0.174 | 8.35 ± 0.549 | > 50 | 4.25 ± 0.89 | > 50 | 8.07 ± 0.706 | 36 ± 2.04 | 32.27 | 26.62 | 18.91 | 41.12 | 9.86 | 4.12 | 21.05 | 53.56 | 23.39 | 25.39 | 23.11 | IC50 (panel of cell lines [3]): 2.5 to 9 µM; Apoptosis (CCRF-CEM lymphoblasts; 5×IC50, 24 h): 10.47%; IC50 (HUVEC): 8.24 ± 0.77 µM; RI (resistance index) (panel of cell lines [2]): 4.50; SI (selectivity index) (panel of cell lines [2]): >7.07
